# Results as given in US20120309704A1, “COMPOSITIONS FOR TREATMENT OF CHEMORESISTANT AND/OR POTENTIALLY CHEMORESISTANT LEUKAEMIAS” (priority 2009, published 2012).
# Columns and labels:
# [1] = system: ALL cell lines REH, RS4, 11 and 697 and primary ALL cells; assay: MSC-mediated chemoresistance of ALL cell lines and primary ALL cells; assay type: cell-based, human
# Description: FIG. 4. hERG1 activity regulates the chemoresistance induced by stromal cells in leukaemic cells a). […] The percentage of Annexin V +/ PI− cells was evaluated after 48 hours of culture.
# For cell counting, after 48 hours of incubation at 37° C. and 5% di CO2, cells were recovered from the plates. We next evaluated the apoptosis. During apoptosis, a series of changes of plasma membrane occurs, one of these alterations of plasma membrane is the shift of phosphatidylserine (PS) from the inner to the outer surface of the cell. The recognition of PS by macrophage allows them to engulf the apoptotic cell, preventing the inflammatory process. The analysis of PS on the plasma membrane of apoptotic cells is performed by using annexin V-fluorescein and propidium iodide (PI) assay (Annexin-V-Fluos Staining Kit, Roche).
# We then identified three cell populations: i) viable cells (annexin V-/propidium iodide-), ii) apoptotic cells (early apoptosis) (annexin V+), and iii) cells in late apoptosis or necrotic (annexin V+/propidium iodide+). All the cell lines (697, RS, REH) were cultured in the absence and in the presence of human bone marrow stromal cells (MSC) in order to reproduce as closely as possible the condition that occurs in the bone marrow.
# After 48 hours of incubation, cells were separated from the stroma and processed for the analysis of apotosis.
# [2] = system: human leukaemic cells REH; assay: In vivo model of human leukaemia: REH cells inoculated into NOD/SCID mice
# Description: FIG. 2. Effect of corticosteroids, inhibitors of hERG1 and of the combination corticosteroids/hERG1 inhibitors in an in vivo model of human leukaemia disease (human leukaemic cells REH inoculated into NOD/SCID mice). Cells were inoculated by injection into the caudal vein and seven days after the inoculum, animals were treated with E4031, Dexamethasone, Dexamethasone+E4031 for two weeks; control mice were treated, with the same schedule, solely with saline solution. At the end of the two weeks of treatment, animals were sacrificed and the spleen and bone marrow were removed. Bone marrow engraftment was evaluated by measuring the percentage of hCD45^+ cells versus mCD45^+ cells by flow cytometry. For the evaluation of apoptosis, the Tunel assay was performed on the histological sections of the treated animals.
# In FIG. 2 the effects of corticosteroids, hERG1 inhibitors and combination of corticosteroids/hERG1 inhibitors in an in vivo model of human leukaemic disease (human leukaemic cells REH inoculated in NOD / SCID mice) is shown. The cells were inoculated by injection into the tail vein and seven days after injection, the animals were treated with E4031, dexamethasone, dexamethasone+E4031 for two weeks; the control mice were treated, according to the same protocol, only with saline.
# At the end of two weeks of treatment the animals were sacrificed and the spleens and bone marrows were removed. The bone marrow engraftment was assessed by measuring the percentage of hCD45+cells versus mCD45+cells by flow cytometry. The Tunel assay for evaluation of apoptosis was performer on bone marrow histological sections from the control and treated animals.
# [3] = system: AML cell lines and primary samples; conditions: administration of hERG1 blockers; cited from earlier work
# [4] = system: ALL(3), ALL(4), ALL(6) cells; assay: Annexin V/propidium iodide apoptosis of primary ALL cells cultured in the absence or presence of MSC; assay type: cell-based, human; conditions: FIG. 1C, co-culture with stromal cells
# Description: The analysis is performed with the flow cytometer FACScan (Becton Dickinson). […] We next evaluated the apoptosis. […] The analysis of PS on the plasma membrane of apoptotic cells is performed by using annexin V-fluorescein and propidium iodide (PI) assay (Annexin-V-Fluos Staining Kit, Roche). The protocol of annexin requie, first, the preparation of the reaction mix, containing 20 μl of annexin and 20 μl of propidium iodide diluted in 1 ml of incubation buffer (1 ml of such mix is enough for 10 samples). About 10^6 cells are washed with PBS and centrifuged at 200 g for 5 minutes; the cell pellet is then resuspend in 100 μl of the solution previously described and incubated for 10-15 min at 15-25° C. The samples are resuspended in 500 μl of incubation buffer, before proceeding to flow cytometry analysis. […] After 48 hours of incubation, cells were separated from the stroma and processed for the analysis of apotosis.
compound,measurement,setting,value
"Cc1cccc(CCN2CCC(C(=O)c3ccc(NS(C)(=O)=O)cc3)CC2)n1.Cl.Cl [E4031, N-[4-[[1-[2-(6-Methyl-2-pyridyl)ethyl]-4-piperidinyl]carbonyl]phenyl]metanesolfonammide dihydrochloride]",MSC mediated chemoresistance,[1],overcome
same,effect on engraftment compared with dexamethasone alone,[2],higher than that produced by dexamethasone alone
same,apoptosis of ALL cells in the bone marrow,[2]; Tunel assay,increase
same,engraftment in the bone marrow,"[2]; treatment for two weeks starting seven days after inoculum, hCD45+ versus mCD45+ cells",reduced
"CN(CCN(C)S(=O)(=O)c1ccc(NS(C)(=O)=O)cc1)c1nc2ccccc2n1C.Cl [Way 123,398, N-metil-N-(2-(metil(1-metil-1H-benzimidazol-2-il)amino)etil)((metilsolfonil)amino)benzensolfonammide HCl]",cellular growth,[3],impairs cellular growth
same,MSC mediated chemoresistance,[1],overcome
COc1cccc2c1C(=O)c1c(O)c3c(c(O)c1C2=O)C[C@@](O)(C(=O)CO)C[C@@H]3O[C@H]1C[C@H](N)[C@H](O)[C@H](C)O1 [doxorubicin],responsiveness of leukaemic cells co-cultured with stromal cells compared to leukaemic cells alone,[4],significantly less responsive
"CC[C@H]1OC(=O)[C@H](C)[C@@H](O[C@H]2C[C@@](C)(OC)[C@@H](O)[C@H](C)O2)[C@H](C)[C@@H](O[C@@H]2O[C@H](C)C[C@H](N(C)C)[C@H]2O)[C@](C)(O)C[C@@H](C)C(=O)[C@H](C)[C@@H](O)[C@]1(C)O [erythromycin, 6-(4-dimethylamino-3-hydroxy-6-methyl-Ossan-2-yl) oxy-14-ethyl-7,12,13-triidrossi-4-(5-hydroxy-4 methoxy-4,6-dimethyl -Ossan-2-yl) oxy-3,5,7,9,11,13-esametil ossaciclotetradecan-1-2,10-dione]",MSC mediated chemoresistance,[1],overcome
"O=C1NCCN1CCN1CCC(c2cn(-c3ccc(F)cc3)c3ccc(Cl)cc23)CC1 [sertindole, 1-(2-{4-[5-chloro-1-(4-FLUORO-PHENYL)-1H-indole-3-IL]-IL-1-Piperidine}-ethyl)-imidazolidin-2-ONE, 1-[2-[4-[5-Chloro-1-(4-fluorophenyl)-1H-indole-3-a]-1-piperidinyl]ethyl]-2-Imidazolidinone]",MSC mediated chemoresistance,[1],overcome
